Where two headings read alike, the source gives them in different places.
Key:
[1] = tested on: Plasmodium falciparum 3D7; assay: Antiplasmodial activity, in vitro culture of chloroquine-sensitive strain; assay type: cell-based
Protocol: Biological activity assays were conducted on microbial extract from Micromonospora sp. SH-82 and on isolated compounds 1, 2, 3, and 5. The tests focused on antiplasmodial and cytotoxic activity. Detailed protocols for these activity tests can be found in reference. The antiplasmodial activity was conducted by using in vitro cultures of the chloroquine-sensitive 3D7 strain of Plasmodium falciparum (BEI Resources, Manassas, VA, USA) following the methodology of Trager and Jensen. The assays were performed in three independent experiments (n = 3), each conducted in duplicate. Artemisinin was used as the positive control, while DMSO served as the vehicle and negative control, representing 100% parasite growth. Untreated red blood cells were also included as a blank. The measurements consisted of determining the concentration required to inhibit 50% of parasite growth (IC50), expressed in µg/mL for the crude extract and in µM for the isolated compounds. IC50 values were calculated via simple linear regression.

[2] = Cytotoxic activity, CellTiter Glo luminescent cell viability assay, 72 h; assay type: cell-based; conditions: human, read-out: Percentage of Cell Viability
Protocol: (§1) Biological activity assays were conducted on microbial extract from Micromonospora sp. SH-82 and on isolated compounds 1, 2, 3, and 5. The tests focused on antiplasmodial and cytotoxic activity. Detailed protocols for these activity tests can be found in reference. The cytotoxic activity was performed on human colorectal HCT-116 and mammary MDA-MB-231 carcinoma cells. Human HCT-116 colorectal carcinoma cells were grown in Gibco McCoy’s 5A supplemented with 10% fetal calf serum and 1% glutamine. MDA-MB231 breast carcinomas were grown in RPMI 1640 supplemented with 10% fetal calf serum and 1% glutamine. Human hTERT-RPE1 cells were cultured in DMEM/F12 medium containing 10% fetal calf serum and 1% glutamine, enabling their impact on a healthy cell line. Cell lines were maintained at 37 °C in a humidified atmosphere containing 5% CO2. Cell viability was determined via a luminescent assay according to the manufacturer’s instructions (Promega, Madison, WI, USA). Briefly, the cells were seeded in 96-well plates (2.5 × 10^3 cells/well) containing 90 μL of growth medium. After 24 h of culture, the cells were treated with the tested compounds at 10 and 1 μg/mL (extracts) or at 10 and 1 μM (pure compounds) final concentrations. Control cells were treated with the vehicle (DMSO), and no effect was observed from DMSO diluted at 1/1000. After 72 h of incubation, 100 μL of CellTiter Glo Reagent was added for 15 min before recording luminescence with a spectrophotometric plate reader PolarStar Omega (BMG LabTech, Ortenberg, Germany). The percent viability index was evaluated by two independent assays in triplicate.

[3] = tested on: RPE1 cell line; assay: Cytotoxicity on non-cancerous cell line, CellTiter Glo luminescent cell viability assay, 72 h; assay type: cell-based, human; conditions: RPE1; 10 and 1 µM (compounds) or 10 and 1 µg/mL (extract)
Protocol: as §1

[4] = as above; assay type: cell-based, human; conditions: human, hTERT-RPE1 cells (non-cancerous cell line), 72 h, read-out: Percentage of Cell Viability; for viability at 72 h, 1 µM: RPE1, pure compounds at 1 µM; for viability at 72 h, 10 µM: RPE1, pure compounds at 10 µM
Protocol: as §1

[5] = Stability check of compound 5 by new NMR and ESI+-HRMS analyses; assay type: physicochemical; conditions: re-analysis by NMR and ESI+-HRMS prior to biological assays, one year later (Figure S43)
Protocol: Prior to conducting biological assays, it was necessary to ascertain the stability of compound 5. To this end, new NMR and ESI^+-HRMS analyses were recorded (Figures S38–S43). […] The first one could be identified as the 9-hydroxy derivative of 5 and, thus, to 6,9-hemiacetal-9-hydroxy-10,11-anhydroerythronolide B (5.1) (Figure 2). The second one has a carbonyl in C-9 at δC 208.8 and, therefore, corresponds to the open form of the first one: 8-epi-10,11-anhydroerythronolide B (5.2) (Figure 2).

[6] = HCT-116 colorectal carcinoma cells, HCT-116, pure compounds at 1 µM
[7] = HCT-116 colorectal carcinoma cells, HCT-116, pure compounds at 10 µM
[8] = MDA-MB-231 breast carcinoma cells, MDA-MB-231, pure compounds at 1 µM
[9] = MDA-MB-231 breast carcinoma cells, MDA-MB-231, pure compounds at 10 µM

IC50 ([1]; 3D7, positive control, read-out: IC50 against Plasmodium falciparum 3D7 (converted)) [µg/mL]	IC50 ([1]; 3D7, Experiment 1, dose-response curve, Figure 8, read-out: IC50 against Plasmodium falciparum 3D7 (converted)) [µM]	IC50 ([1]; 3D7, Experiment 2, dose-response curve, Figure 8, read-out: IC50 against Plasmodium falciparum 3D7 (converted)) [µM]	IC50 ([1]; 3D7, Experiment 3, dose-response curve, Figure 8, read-out: IC50 against Plasmodium falciparum 3D7 (converted)) [µM]	IC50 ([1]; 3D7, IC50 obtained from the average dose-response curve, Figure 8, read-out: IC50 (mean curve)) [µM]	IC50 ([1]; 3D7, arithmetic mean ± SD of three independent assays, read-out: IC50 against Plasmodium falciparum 3D7 (converted)) [µM]	IC50 ([1]; 3D7, mean ± SD of three independent assays, read-out: IC50 against Plasmodium falciparum 3D7 (converted)) [µg/mL]	stability of the compound (in words) [5]	Compound	viability at 72 h, 1 µM [2, 6] [%]	viability at 72 h, 10 µM [2, 7] [%]	viability at 72 h, 1 µM [2, 8] [%]	viability at 72 h, 10 µM [2, 9] [%]	toxicity towards healthy cells (in words) [3]	viability at 72 h, 1 µM [4] [%]	viability at 72 h, 10 µM [4] [%]
0.00636	–	–	–	–	–	–	–	C[C@@H]1CC[C@H]2[C@@H](C)C(=O)O[C@@H]3O[C@@]4(C)CC[C@@H]1[C@]32OO4 [Artemisinin, reference compound]	–	–	–	–	–	–	–
–	–	–	–	–	–	–	–	CC[C@H]1OC(=O)[C@H](C)[C@@H](O)[C@H](C)[C@@H](O)[C@](C)(O)C[C@@H](C)C(=O)[C@H](C)[C@@H](O)[C@H]1C [Compound 1, Erythronolide B]	101 ± 0.5	104 ± 1.16	107 ± 0.86	100 ± 0.76	No activity	102 ± 1.58	97.3 ± 1.03
–	–	–	–	–	–	–	–	CC[C@H]1OC(=O)[C@H](C)[C@@H](O)[C@H](C)[C@@H](O)[C@@H](C)C[C@@H](C)C(=O)[C@H](C)[C@@H](O)[C@H]1C [Compound 2, 6-desoxyerythronolide B]	101 ± 1.62	103 ± 3.56	105 ± 1.56	101 ± 1.13	No activity	99.1 ± 1.4	95.3 ± 0.96
–	3.61	9.54	5.96	6.31	6.37	6.12 ± 2.87	–	CCC1OC(=O)C(C)C(OC2CC(C)(OC(C)=O)C(OC(C)=O)C(C)O2)C(C)C(OC2OC(C)CC(N(C)C)C2O)C(C)(OC2CC(N(C)C)C(O)C(C)O2)CC(C)C(=O)C(C)C(O)C1(C)O (stereo not drawn) [Compound 3, megalomicin C1]	100 ± 1.66	97.3 ± 2.22	102 ± 1.74	98.6 ± 1.38	No activity	104 ± 1.32	104 ± 1.94
–	–	–	–	–	–	–	a mixture of two compounds is observed	CCC1OC(=O)C(C)C(O)C(C)C(O)C2(C)CC(C)C(OC)(O2)C(C)=CC1C (stereo not drawn) [Compound 5, 6,9-hemiacetal-9-O-methyl-10,11-anhydroerythronolide B]	99.1 ± 0.32	99.7 ± 0.59	100 ± 1.74	99 ± 3.28	No activity	103 ± 1.52	103 ± 1.77
